This is an account of results in article PMC10945556, “Design, Synthesis, and Antifungal Activity of 3-Substituted-2(5H)-Oxaboroles” (ACS Medicinal Chemistry Letters, 2024).

For data set [1], the system named is E. coli. In words: Growth inhibition screen in liquid medium. The data set is classed as cell-based, Escherichia coli. Particulars: screen at 50 and 12.5 μg/mL. An excerpt:
These included four bacterial pathogens [Bacillus cereus (Gram-positive), Methicillin resistant Staphylococcus aureus (Gram-positive), Pseudomonas aeruginosa (Gram-negative), and Escherichia coli (Gram-negative)], a fungal pathogen (Candida albicans), and a yeast (Saccharomyces cerevisiae). […] Commercially available tavaborole, cycloheximide, and nystatin were also screened as benchmarks. […] In addition, the 3-substituted oxaboroles were screened in a dose-dependent manner on solid media against three spore-forming fungal pathogens: Trichophyton mentagrophytes, Penicillium chrysogenum, and Aspergillus flavus (Figures 2B and S152–S192). The compounds could not be screened for growth inhibition in liquid media against these pathogens due to clumping of the mycelia, which impeded the absorbance readings.

The subject of data set [2] is Methicillin resistant Staphylococcus aureus. The experiment in a line: MIC, microbroth dilution. The data set is classed as cell-based. The settings on record: Staphylococcus aureus, S. aureus (MRSA).
Data set [3] relates to T. mentagrophytes. In words: MIC, dose-dependent solid media assay. The data set is classed as cell-based, Trichophyton mentagrophytes. Particulars: Trichophyton mentagrophytes.
Data set [4] relates to rat myoblast cells (H9c2). The experiment in a line: Cell viability assay against H9c2 cell line. The data set is classed as cell-based. The settings on record: concentrations up to 100 μM, 24 h. How it is done:
(§1) In general, very little growth inhibition was observed against either Gram-positive or Gram-negative bacterial pathogens. […] The SAR for the antibacterial is dissimilar to that observed for the antifungal properties.
(§2) Figure 3 (A) Cell viability assay against H9c2 cell line at 100 μM for 24 h (normalized to PBS no treatment), (B) Hemolytic assay at 50 and 100 μM for 1 h (normalized to triton X-100 positive control). Error bars in both graphs represent standard error of mean (SEM) of replicates (n = 3).

The nature of data set [5]: Hemolytic assay. The data set is classed as cell-based. Particulars: 50 and 100 μM for 1 h. How it is done:
as §1, §2

Data set [6] has as its system A. flavus. The experiment in a line: MIC, dose-dependent solid media assay. The data set is classed as cell-based, Aspergillus flavus. The settings on record: Aspergillus flavus.
Data set [7] has as its system P. chrysogenum. In words: MIC, dose-dependent solid media assay. The data set is classed as cell-based, Penicillium chrysogenum. The settings on record: Penicillium chrysogenum.
In data set [8] the test system is P. aeruginosa. In words: MIC, microbroth dilution. The data set is classed as cell-based, Pseudomonas aeruginosa. The settings on record: Pseudomonas aeruginosa. For orientation: In broth dilution the organism is exposed to a series of concentrations in liquid medium.
Data set [9] concerns B. cereus. The experiment in a line: MIC, microbroth dilution. The settings on record: Bacillus cereus. The data set is classed as cell-based, Bacillus cereus.
Data set [10] deals with E. coli. In words: MIC, microbroth dilution. The settings on record: for MIC: Escherichia coli. The data set is classed as cell-based, Escherichia coli.
Data set [11] relates to S. cerevisiae. The experiment in a line: MIC, microbroth dilution. The data set is classed as cell-based, Saccharomyces cerevisiae. The settings on record: Saccharomyces cerevisiae.
Data set [12] deals with C. albicans. The experiment in a line: MIC, microbroth dilution. Particulars: Candida albicans. The data set is classed as cell-based, Candida albicans.

Each structure is given as a SMILES string. Values after ≈ are worked out from the molar mass of the structure shown. Some results are limits rather than exact numbers.

Consider `CCCc1ccc(C2=CCOB2O)cc1` [Compound 6x], for which, in data set [1], the “growth inhibition of E. coli” value is on record as “inhibited the growth”. Also, the minimal inhibitory concentration (MIC) was above 50 µg/mL in data set [2]; above 248 µM in data set [2] (value in parentheses); 50 µg/mL in data set [3]; 248 µM in [3] (value in parentheses); above 50 µg/mL in data set [6]; above 248 µM in [6] (value in parentheses). The MIC is 12.5 µg/mL in [7]; 61.9 µM in data set [7] (value in parentheses); above 50 µg/mL in data set [8]; above 248 µM in data set [8] (value in parentheses); above 50 µg/mL in data set [9]; above 248 µM in data set [9] (value in parentheses). Also, the MIC was 20 to 50 µg/mL in data set [10]; 104 µM in data set [10] (value in parentheses); 10.4 ± 2 µg/mL in [11]; 51.5 µM in [11] (value in parentheses); above 50 µg/mL in [12]; above 248 µM in [12] (value in parentheses). In data set [4], the “cytotoxic effects against rat myoblast cells (H9c2)” value (“cytotoxic effects” below) is “none”. Besides, the hemolytic activity entry in [5] was “none possessed hemolytic activity”. Besides, the “MIC EC” value in data set [10] was 21 ± 4 µg/mL (≈ 104 µM).
Regarding `Cc1ccc(C2=CCOB2O)cc1` [Compound 6t], the “growth inhibition of E. coli” value in data set [1] is “inhibited the growth”. The MIC is above 50 µg/mL in data set [2]; above 287 µM in data set [2] (value in parentheses); above 50 µg/mL in data set [3]; above 287 µM in data set [3] (value in parentheses); above 50 µg/mL in data set [6]; above 287 µM in data set [6] (value in parentheses). In addition, the MIC was 21 ± 4 µg/mL in [7]; 121 µM in [7] (value in parentheses); above 50 µg/mL in [8]; above 287 µM in data set [8] (value in parentheses); above 50 µg/mL in [9]; above 287 µM in data set [9] (value in parentheses). Also, the minimal inhibitory concentration (MIC) in data set [10] (value in parentheses) was 241 µM; in data set [11], 10.4 ± 2 µg/mL; in data set [11] (value in parentheses) it was 59.8 µM; in data set [12], above 50 µg/mL; in [12] (value in parentheses) it was above 287 µM. Moreover, the “cytotoxic effects” value in data set [4] is “none”. Also, in [5], the hemolytic activity entry is on record as “none possessed hemolytic activity”.
With `OB1OCC=C1c1ccc(Cl)cc1` [Compound 6e], in [1], the “growth inhibition of E. coli” value was “inhibited the growth”. Further, the minimal inhibitory concentration (MIC) in [2] is above 50 µg/mL; in data set [2] (value in parentheses), above 258 µM; in data set [3], 50 µg/mL; in data set [3] (value in parentheses) it was 258 µM; in data set [6] it was 50 µg/mL; in data set [6] (value in parentheses) it was 258 µM. For the same compound, the minimum inhibitory concentration (MIC) is 12.5 µg/mL in data set [7]; 64.4 µM in [7] (value in parentheses); above 50 µg/mL in data set [8]; above 258 µM in data set [8] (value in parentheses); above 50 µg/mL in data set [9]; above 258 µM in data set [9] (value in parentheses). The minimal inhibitory concentration (MIC) in data set [10] is 20 to 50 µg/mL; in data set [10] (value in parentheses), 129 µM; in data set [11], 5.2 ± 1 µg/mL; in data set [11] (value in parentheses), 26.8 µM; in data set [12], above 50 µg/mL; in data set [12] (value in parentheses) it was above 258 µM. Besides, the “MIC EC” value in data set [10] worked out at 25 ± 0 µg/mL (≈ 129 µM).
As to `OB1OCC=C1c1ccc(F)cc1` [Compound 6b], the “growth inhibition of E. coli” value in data set [1] was “inhibited the growth”. In addition, the minimum inhibitory concentration (MIC) in data set [2] is above 50 µg/mL; in data set [2] (value in parentheses) it was above 281 µM; in [3], above 50 µg/mL; in data set [3] (value in parentheses), above 281 µM; in data set [6] it was above 50 µg/mL; in data set [6] (value in parentheses), above 281 µM. Besides, the MIC is 25 µg/mL in data set [7]; 140 µM in data set [7] (value in parentheses); above 50 µg/mL in data set [8]; above 281 µM in data set [8] (value in parentheses); above 50 µg/mL in data set [9]; above 281 µM in [9] (value in parentheses). Further, the MIC in data set [10] (value in parentheses) was 236 µM; in data set [11], 10.4 ± 2 µg/mL; in data set [11] (value in parentheses), 58.4 µM; in data set [12], above 50 µg/mL; in data set [12] (value in parentheses) it was above 281 µM.
Take `OB1OCC=C1c1ccc(Br)cc1` [Compound 6h]: the “growth inhibition of E. coli” value in data set [1] was “inhibited the growth”. Moreover, the minimal inhibitory concentration (MIC) in data set [2] was above 50 µg/mL; in data set [2] (value in parentheses), above 210 µM; in data set [3] it was 33 ± 8 µg/mL; in data set [3] (value in parentheses) it was 139 µM; in data set [6], 33 ± 8 µg/mL; in data set [6] (value in parentheses), 139 µM. The minimum inhibitory concentration (MIC) in [7] was 12.5 µg/mL; in [7] (value in parentheses), 52.5 µM; in data set [8], above 50 µg/mL; in data set [8] (value in parentheses), above 210 µM; in [9] it was above 50 µg/mL; in data set [9] (value in parentheses) it was above 210 µM. The minimum inhibitory concentration (MIC) in data set [10] was 20 to 50 µg/mL; in data set [10] (value in parentheses), 88.2 µM; in [11] it was 12.5 µg/mL; in data set [11] (value in parentheses), 52.5 µM; in [12], above 50 µg/mL; in [12] (value in parentheses), above 210 µM. In addition, the “cytotoxic effects” value in data set [4] is given as “none”. Further, the hemolytic activity entry in data set [5] is recorded as “none possessed hemolytic activity”. Also, the “MIC EC” value in [10] came out at 21 ± 4 µg/mL (≈ 87.9 µM).
`OB1OCC=C1c1cccs1` [Compound 6s]: the “growth inhibition of E. coli” value in data set [1] is recorded as “inhibited the growth”. The MIC in data set [2] is above 50 µg/mL; in data set [2] (value in parentheses) it was above 301 µM; in data set [3] it was above 50 µg/mL; in data set [3] (value in parentheses), above 301 µM; in [6], above 50 µg/mL; in [6] (value in parentheses), above 301 µM. The MIC in data set [7] is 50 µg/mL; in data set [7] (value in parentheses) it was 301 µM; in data set [8], above 50 µg/mL; in [8] (value in parentheses), above 301 µM; in data set [9], above 50 µg/mL; in data set [9] (value in parentheses) it was above 301 µM. The minimum inhibitory concentration (MIC) in data set [10] (value in parentheses) is 253 µM; in data set [11] it was 10 ± 2 µg/mL; in data set [11] (value in parentheses) it was 60.2 µM; in [12], above 50 µg/mL; in data set [12] (value in parentheses), above 301 µM.
With `OB1OCC=C1c1ccc2ccccc2c1` [Compound 6q], the MIC is above 50 µg/mL in [2]; above 238 µM in data set [2] (value in parentheses); above 50 µg/mL in data set [3]; above 238 µM in data set [3] (value in parentheses); above 50 µg/mL in data set [6]; above 238 µM in data set [6] (value in parentheses). Also, the minimum inhibitory concentration (MIC) was 12.5 µg/mL in [7]; 59.5 µM in data set [7] (value in parentheses); above 50 µg/mL in data set [8]; above 238 µM in data set [8] (value in parentheses); above 50 µg/mL in data set [9]; above 238 µM in data set [9] (value in parentheses). For the same compound, the MIC was above 50 µg/mL in [10]; above 238 µM in [10] (value in parentheses); above 50 µg/mL in data set [11]; above 238 µM in data set [11] (value in parentheses); above 50 µg/mL in [12]; above 238 µM in data set [12] (value in parentheses). Moreover, in data set [4], the “cytotoxic effects” value is given as “none”. Moreover, the hemolytic activity result in data set [5] is listed as “none possessed hemolytic activity”.

Usually MIC stands for the least concentration at which growth counts as inhibited.
